Measured values taken from patent publication US20240208956A1, “1,3,4-OXADIAZOLE THIOCARBONYL COMPOUNDS AS HISTONE DEACETYLASE 6 INHIBITOR, AND PHARMACEUTICAL COMPOSITION COMPRISING THE SAME” (CHONG KUN DANG PHARMACEUTICAL CORP., priority 2021, published 2024).

How the values were obtained:
HDAC1 = HDAC1 (Homo sapiens (Human), UniProt Q13547); experiment: HDAC enzyme activity inhibition (in vitro), HDAC1 Fluorimetric Drug Discovery Assay Kit; type: biochemical; settings: samples at 100, 1000 and 10000 nM; 37° C. 60 minutes; fluorescence Ex 390 nm, Em 460 nm
Sequence of HDAC1 (Q13547 whole entry): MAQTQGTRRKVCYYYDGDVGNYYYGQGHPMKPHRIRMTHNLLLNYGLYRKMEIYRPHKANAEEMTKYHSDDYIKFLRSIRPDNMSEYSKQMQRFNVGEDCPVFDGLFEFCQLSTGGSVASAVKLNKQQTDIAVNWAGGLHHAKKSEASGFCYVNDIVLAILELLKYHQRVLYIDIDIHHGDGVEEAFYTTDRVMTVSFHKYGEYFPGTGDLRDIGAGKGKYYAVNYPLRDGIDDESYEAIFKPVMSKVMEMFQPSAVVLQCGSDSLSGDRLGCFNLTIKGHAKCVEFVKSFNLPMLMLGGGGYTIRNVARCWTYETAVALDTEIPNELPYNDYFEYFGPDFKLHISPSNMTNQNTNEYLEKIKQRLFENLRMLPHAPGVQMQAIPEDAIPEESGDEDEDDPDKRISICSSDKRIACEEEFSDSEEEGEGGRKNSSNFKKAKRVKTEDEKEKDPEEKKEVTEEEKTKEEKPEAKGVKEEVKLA
Method: Experimental Example 1. Confirmation of HDAC Enzyme Activity Inhibition (In Vitro)
(§1) An HDAC enzyme inhibitory capacity of test material was measured by using HDAC1 Fluorimetric Drug Discovery Assay Kit (Enzolifesciences: BML-AK511) and HDAC6 human recombinant (Calbiochem: 382180). For a HDAC1 assay, samples were treated at a concentration of 100 nM, 1000 nM and 10000 nM. For an HDAC6 assay, samples were treated at a concentration of 0.1 nM, 1 nM, 10 nM, 100 nM and 1000 nM. After the sample treatment, a reaction was continued at 37° C. for 60 minutes, treated with a developer, and subjected to reaction at 37° C. for 30 minutes, after which fluorescence intensity (Ex 390 nm, Em 460 nm) was measured by using FlexStation3 (Molecular device). For final result values, each […] value was calculated with GraphPad Prism 4.0 program.

HDAC6 human recombinant = HDAC6 human recombinant (Homo sapiens (Human), UniProt Q9UBN7); experiment: HDAC enzyme activity inhibition (in vitro), HDAC6 fluorimetric assay; type: biochemical; settings: samples at 0.1-1000 nM; 37° C. 60 minutes; fluorescence Ex 390 nm, Em 460 nm
Sequence of HDAC6 human recombinant (Q9UBN7 whole entry): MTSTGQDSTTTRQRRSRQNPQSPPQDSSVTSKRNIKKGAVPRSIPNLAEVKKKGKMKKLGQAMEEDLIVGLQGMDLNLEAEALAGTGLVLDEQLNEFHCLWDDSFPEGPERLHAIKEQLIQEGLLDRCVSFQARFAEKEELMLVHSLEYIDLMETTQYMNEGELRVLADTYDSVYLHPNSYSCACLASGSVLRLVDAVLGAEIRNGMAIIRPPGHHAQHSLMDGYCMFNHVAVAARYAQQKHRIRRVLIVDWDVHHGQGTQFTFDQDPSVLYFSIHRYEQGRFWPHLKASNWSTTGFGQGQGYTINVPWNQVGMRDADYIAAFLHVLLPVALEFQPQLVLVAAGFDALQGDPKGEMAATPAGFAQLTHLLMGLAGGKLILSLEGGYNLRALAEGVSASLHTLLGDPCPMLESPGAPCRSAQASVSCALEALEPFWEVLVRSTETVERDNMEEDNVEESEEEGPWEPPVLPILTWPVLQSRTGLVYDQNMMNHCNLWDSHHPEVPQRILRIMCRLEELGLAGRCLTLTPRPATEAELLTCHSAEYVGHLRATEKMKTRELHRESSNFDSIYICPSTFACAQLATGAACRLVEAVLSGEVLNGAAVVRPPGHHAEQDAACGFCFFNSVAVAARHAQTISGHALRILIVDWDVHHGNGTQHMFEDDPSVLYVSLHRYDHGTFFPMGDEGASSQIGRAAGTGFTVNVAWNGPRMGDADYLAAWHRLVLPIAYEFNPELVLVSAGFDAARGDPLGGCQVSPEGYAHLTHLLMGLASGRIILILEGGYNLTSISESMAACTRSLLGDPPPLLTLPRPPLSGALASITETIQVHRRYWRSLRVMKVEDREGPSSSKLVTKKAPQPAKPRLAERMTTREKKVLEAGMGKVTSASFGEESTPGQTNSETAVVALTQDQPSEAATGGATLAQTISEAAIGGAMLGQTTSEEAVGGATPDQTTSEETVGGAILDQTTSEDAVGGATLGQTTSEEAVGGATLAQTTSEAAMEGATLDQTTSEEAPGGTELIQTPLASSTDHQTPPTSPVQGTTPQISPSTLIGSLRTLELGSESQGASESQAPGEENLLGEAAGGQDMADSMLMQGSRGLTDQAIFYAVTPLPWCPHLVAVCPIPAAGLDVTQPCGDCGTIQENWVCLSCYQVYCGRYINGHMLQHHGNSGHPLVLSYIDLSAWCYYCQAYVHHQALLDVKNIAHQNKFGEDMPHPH
Method: Confirmation of HDAC Enzyme Activity Inhibition (In Vitro)
as §1

IC50 (HDAC1): > 10 µM
IC50 (HDAC6 human recombinant): 0.028 µM
Structure (SMILES): CN1CCC2(CC1)CN(C(=S)N(Cc1ccc(-c3nnc(C(F)F)o3)cc1F)c1ccc(F)c(F)c1)C2 [Compound 46, N-(4-(5-(difluoromethyl)-1,3,4-oxadiazol-2-yl)-2-fluorobenzyl)-N-(3,4-difluorophenyl)-7-methyl-2,7-diazaspiro[3.5]nonan-2-carbothioamide]
